Test results as given in US10501479B2, “Benzenesulfonyl-asymmetric ureas and medical uses thereof” (HELSINN HEALTHCARE SA, priority 2016, dated 2019).

Experiments:
[1] = Metabolic stability in mouse liver microsomes; type: in vitro ADME
Procedure: (§1) Metabolic Stability Study
(§2) The metabolic stability of compounds in human, dog, rat and mouse liver microsomes was performed according the experimental conditions reported below:
(§3) • a) Prepare the following 5 stock solutions: • 1. Test compound stock solutions: dilute 10 mM solution of dextromethorphan (Dtr) in DMSO, 10 mM solution of diphenhydramine (DPA) in DMSO, 10 mM solution of omeprazole (Ome) in DMSO, 10 mM solution of verapamil (Ver) in DMSO, and 10 mM of an inverse agonist compound in DMSO to 0.25 mM solution each with acetonitrile/water (70/30). • 2. Buffer: 100 mM potassium phosphate Buffer (PBS) at pH 7.4 • 3. Liver microsomes (20 mg/ml): Thaw in 37° C. water bath quickly • 4. 2000 μL: of NADPH regenerating system (1.3 mM). Place this system on ice before use:
(§4) • 5. […] The test compound concentration in the wells, measured by LC-MS/MS, represents the concentration at time=0. • f) To determine the test compound concentration when t≠0, pre-incubate the NADPH regenerating system and the incubation plate containing the remaining 320 μL of incubation mixture (microsomes protein and test compound) for 5 minutes at 37° C. • g) Start the incubation reaction by adding 80 μL NADPH regenerating system to each well containing the remaining 320 μL incubation mixture. • h) After 10 min., 30 min., and 90 min. of incubation at 37° C., transfer 100 μL of the incubation mixture (microsomes protein, test compound, and NADPH) into the wells of a stop plate pre-filled with 300 μL of the cold quench solution. Shake well. • i) Centrifuge the stop plate at 5000×g for 10 minutes. Collect and dilute the supernatant 3 times with distilled water. Sample and analyze the test compound concentration for all the wells by LC-MS/MS. Animal PK Studies via i.v. (intravenous), p.o. (orally) and s.c. (subcutaneous) administrations

[2] = target: T1, recombinant human ghrelin receptor (HEK293/GRLN) (Homo sapiens, UniProt Q92847); test: Ghrelin inverse agonist potency (EC50) with IP-1 (IP-One HTRF) assay; type: cell-based; details: IP-1 assay, HEK293/GRLN; read-out: Activity EC50 (ghrelin inverse agonist potency)
T1 construct: expressed in transfected cells
Method in brief: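 HEK293/GRLN cells were seeded 18-22 hours before the test, then exposed to compound in stimulation buffer for 1 hour at 37° C, 5% CO2. IP-1 was detected by IP-One HTRF (IP1-d2 plus Tb-cryptate, 1 hour RT), reading 620 and 665 nm; the inverse agonist EC50 was derived from this.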

[3] = Metabolic stability in human liver microsomes; type: in vitro ADME
Procedure: as §1, §2, §3, §4

[4] = target: T2, GHSR-1a (HEK293/GHSR1a cell line) (Homo sapiens, UniProt Q92847); test: Ghrelin antagonist potency (IC50) with calcium FLIPR assay, ghrelin 10 nM; type: cell-based; details: HEK293/GHSR1a, ghrelin 10 nM, read-out: Activity IC50 (ghrelin antagonist potency)
T2 construct: expressed in transfected cells; host or cells: HEK293/GHSR1a cell line
Method in brief: (§5)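 Potency values were estimated from dose-response curves of relative fluorescence, with calcium followed for 2 minutes after additions at t=20 sec. Agonism was tested with compound alone. Antagonism was tested with compound plus 10 nM ghrelin and scored as a reduction of the ghrelin signal.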

[5] = target: T2, GHSR-1a (HEK293/GHSR1a cell line); test: Ghrelin agonist potency (EC50) with calcium FLIPR assay; type: cell-based; details: HEK293/GHSR1a, read-out: Activity EC50/EMax: EC50 (ghrelin agonist potency)
Method in brief: as §5

T1 sequence (Q92847 whole entry): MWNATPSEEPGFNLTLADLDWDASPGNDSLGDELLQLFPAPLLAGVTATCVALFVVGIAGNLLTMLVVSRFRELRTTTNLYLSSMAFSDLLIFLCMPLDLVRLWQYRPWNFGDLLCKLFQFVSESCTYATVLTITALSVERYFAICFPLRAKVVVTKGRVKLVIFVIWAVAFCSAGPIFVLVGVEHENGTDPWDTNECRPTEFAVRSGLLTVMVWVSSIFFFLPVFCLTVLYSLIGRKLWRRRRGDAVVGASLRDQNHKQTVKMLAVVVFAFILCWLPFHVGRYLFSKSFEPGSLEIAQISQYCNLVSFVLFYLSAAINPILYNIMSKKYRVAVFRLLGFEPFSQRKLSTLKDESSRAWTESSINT
T2 sequence (Q92847 whole entry): as above

Row | Structure (SMILES) | Metabolic Stability Study M = mouse [1] [µL/min/mg] | EC50 [2] [nM] | Metabolic Stability Study H = human [3] [µL/min/mg] | IC50 [4] [nM] | EC50 [5] [nM]
1 | CC(NC(=O)Nc1ccc(S(=O)(=O)Cc2ccc3c(c2)CN(C)C3)cc1)c1cccc(Cl)c1 (centres unmarked) [H1266, 1-(1-(3-chlorophenyl)ethyl)-3-(4-(((2-methylisoindolin-5-yl)methyl)sulfonyl)phenyl)urea] | 106.1 | 19.1 | 169.4 | 24.2 | > 30000
2 | CC(NC(=O)Nc1ccc(S(=O)(=O)Cc2ccc3c(c2)CN(C)C3)cc1)c1ccccc1Cl (centres unmarked) [H1267, 1-(1-(2-chlorophenyl)ethyl)-3-(4-(((2-methylisoindolin-5-yl)methyl)sulfonyl)phenyl)urea] | 147.8 | 4.7 | 109.8 | 9.2 | > 30000
3 | CC(NC(=O)Nc1ccc(S(=O)(=O)Cc2ccc3c(c2)CN(C)C3)cc1)c1ccc(F)cc1 (centres unmarked) [H1268, 1-(1-(4-fluorophenyl)ethyl)-3-(4-(((2-methylisoindolin-5-yl)methyl)sulfonyl)phenyl)urea] | 60.5 | 29.9 | 108.7 | 83.2 | > 30000
4 | CC(NC(=O)Nc1ccc(S(=O)(=O)Cc2ccc3c(c2)CNC3)cc1)c1cccc(F)c1 (centres unmarked) [H1269, 1-(1-(3-fluorophenyl)ethyl)-3-(4-((isoindolin-5-ylmethyl)sulfonyl)phenyl)urea] | 23.6 | 8.8 | 25.7 | 24 | > 30000
5 | CC(NC(=O)Nc1ccc(S(=O)(=O)Cc2ccc3c(c2)CNC3)cc1)c1ccccc1F (centres unmarked) [H1272, 1-(1-(2-fluorophenyl)ethyl)-3-(4-((isoindolin-5-ylmethyl)sulfonyl)phenyl)urea] | 18.6 | 5.3 | 18.4 | 23.5 | > 30000
6 | CC(NC(=O)Nc1ccc(S(=O)(=O)Cc2ccc(CN3CCCC3)cc2)cc1)c1ccccc1 (centres unmarked) [H1276, 1-(1-phenylethyl)-3-(4-((4-(pyrrolidin-1-ylmethyl)benzyl)sulfonyl)phenyl)urea] | 247 | 23.4 | 109.7 | 76 | > 30000
7 | CCc1ccc(Cl)c(C(C)NC(=O)Nc2ccc(S(=O)(=O)Cc3ccc4c(c3)CNC4)cc2)c1 (centres unmarked) [H1281, 1-(1-(2-chloro-5-ethylphenyl)ethyl)-3-(4-((isoindolin-5-ylmethyl)sulfonyl)phenyl)urea] | 47.8 | 15.3 | 63.8 | 39 | > 30000
8 | CCc1ccc(Cl)c(C(C)NC(=O)Nc2ccc(S(=O)(=O)Cc3ccc4c(c3)CN(C)C4)cc2)c1 (centres unmarked) [H1286, 1-(1-(2-chloro-5-ethylphenyl)ethyl)-3-(4-(((2-methylisoindolin-5-yl)methyl)sulfonyl)phenyl)urea] | 162.4 | 24.3 | 251.8 | 39.5 | > 30000
9 | C[C@H](NC(=O)Nc1ccc(S(=O)(=O)Cc2ccc3c(c2)CN(C)C3)cc1)c1ccccc1 [H1299, (S)-1-(4-(((2-methylisoindolin-5-yl)methyl)sulfonyl)phenyl)-3-(1-phenylethyl)urea] | 50.9 | 102 | 71.5 | 192 | > 30000
10 | CC(NC(=O)Nc1ccc(S(=O)(=O)Cc2ccc3c(c2)CN(C)C3)cc1)c1cccc2ccccc12 (centres unmarked) [H1302, 1-(4-(((2-methylisoindolin-5-yl)methyl)sulfonyl)phenyl)-3-(1-(naphthalen-1-yl)ethyl)urea] | 164.1 | 4.7 | 201.7 | 5.7 | > 30000
11 | C[C@H](NC(=O)Nc1ccc(S(=O)(=O)Cc2ccc3c(c2)CCNCC3)cc1)c1ccccc1 [H1306, (S)-1-(1-phenylethyl)-3-(4-(((2,3,4,5-tetrahydro-1H-benzo[d]azepin-7-yl)methyl)sulfonyl)phenyl)urea] | 19.6 | 74.6 | 31.2 | 62 | > 30000
12 | CC(NC(=O)Nc1ccc(S(=O)(=O)Nc2ccc3c(c2)CN(C)C3)cc1)c1ccccc1 (centres unmarked) [H1308, N-(2-methylisoindolin-5-yl)-4-(3-(1-phenylethyl)ureido) benzenesulfonamide] | 38.5 | 31.2 | 49.4 | 23.5 | > 30000
13 | C[C@H](NC(=O)Nc1ccc(S(=O)(=O)Cc2ccc3c(c2)CN(C)CC3)cc1)c1ccccc1 [H1311, (S)-1-(4-(((2-methyl-1,2,3,4-tetrahydroisoquinolin-7-yl)methyl)sulfonyl)phenyl)-3-(1-phenylethyl)urea] | 123.8 | 84.6 | 95.9 | 108 | > 30000
14 | CN1Cc2ccc(CS(=O)(=O)c3ccc(NC(=O)NC4CCCc5ccccc54)cc3)cc2C1 (centres unmarked) [H1312, 1-(4-(((2-methylisoindolin-5-yl)methyl)sulfonyl)phenyl)-3-(1,2,3,4-tetrahydronaphthalen-1-yl)urea] | 117.5 | 85.8 | 93.5 | 69 | > 30000
15 | CC(NC(=O)Nc1ccc(S(=O)(=O)Cc2ccc3c(c2)CN(C)C3)cc1F)c1ccccc1 (centres unmarked) [H1317, 1-(2-fluoro-4-(((2-methylisoindolin-5-yl)methyl)sulfonyl)phenyl)-3-(1-phenylethyl)urea] | 102.8 | 18.2 | 96.7 | 48.4 | > 30000
16 | CC(NC(=O)Nc1ccc(S(=O)(=O)Cc2ccc3c(c2)CN(C2COC2)C3)cc1)c1ccccc1 (centres unmarked) [H1319, 1-(4-(((2-(oxetan-3-yl)isoindolin-5-yl)methyl)sulfonyl)phenyl)-3-(1-phenylethyl)urea] | > 500 | 12.5 | 195.6 | 41 | > 30000
17 | CC(NC(=O)Nc1ccc(S(=O)(=O)Cc2cc3c(s2)CN(C)C3)cc1)c1ccccc1 (centres unmarked) [H1321, 1-(4-(((5-methyl-5,6-dihydro-4H-thieno[2,3-c]pyrrol-2-yl)methyl)sulfonyl)phenyl)-3-(1-phenylethyl)urea] | 81.9 | 23.2 | 85.3 | 47.5 | > 30000
18 | C[C@H](NC(=O)Nc1ccc(S(=O)(=O)Cc2ccc3c(c2)CCN(C)CC3)cc1)c1ccccc1 [H1322, (S)-1-(4-(((3-methyl-2,3,4,5-tetrahydro-1H-benzo [d]azepin-7-yl)methyl)sulfonyl)phenyl)-3-(1-phenylethyl)urea] | 171.1 | 81.5 | 129 | 112 | > 30000
19 | CC(NC(=O)Nc1ccc(S(=O)(=O)Cc2cnc3c(c2)CN(C)C3)cc1)c1ccccc1 (centres unmarked) [H1323, 1-(4-(((6-methyl-6,7-dihydro-5H-pyrrolo[3,4-b]pyridin-3-yl)methyl)sulfonyl)phenyl)-3-(1-phenylethyl)urea] | 58.5 | 102 | 84.1 | 243 | > 30000
